ChEMBL document CHEMBL1201862, “PubChem BioAssay data set” (2004)
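The compound was tested at five concentrations on cells cultured in 96-well plates, with a 48-hour exposure period. Abbreviation: GI50, concentration required for 50% inhibition of growth.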 Active and inactive are the calls of the source. Cut-off read from the data, not from the text of the source: active = GI50 up to about 1.1 µM and inactive = higher.

Assays:
Assay in all cases: NCI anticancer screen, dose series, 48 h
COLO 205 = test system: COLO 205
SK-MEL-2 = test system: SK-MEL-2
SNB-75 = test system: SNB-75
RPMI-8226 = test system: RPMI-8226
M19-MEL = test system: M19-MEL
SR = test system: SR
SF-539 = test system: SF-539
HOP-92 = test system: HOP-92
NCI-H23 = test system: NCI-H23
SNB-78 = test system: SNB-78
DMS-273 = test system: DMS-273
HOP-62 = test system: HOP-62
LXFL 529 = test system: LXFL 529
Malme-3M = test system: Malme-3M
SK-MEL-28 = test system: SK-MEL-28
MOLT-4 = test system: MOLT-4
SK-OV-3 = test system: SK-OV-3
DLD-1 = test system: DLD-1
HCC 2998 = test system: HCC 2998
DMS-114 = test system: DMS-114
CAKI-1 = test system: CAKI-1
NCI-H226 = test system: NCI-H226
CCRF-CEM = test system: CCRF-CEM
SF-268 = test system: SF-268
HCT-116 = test system: HCT-116
XF498 = test system: XF498
786-0 = test system: 786-0
ACHN = test system: ACHN
UACC-62 = test system: UACC-62
HL-60 = test system: HL-60
K562 = test system: K562
SN12C = test system: SN12C
UO-31 = test system: UO-31
M14 = test system: M14
NCI-H522 = test system: NCI-H522
A498 = test system: A498
OVCAR-4 = test system: OVCAR-4
IGROV-1 = test system: IGROV-1
OVCAR-8 = test system: OVCAR-8
MCF7 = test system: MCF7
HT-29 = test system: HT-29
NCI-H460 = test system: NCI-H460
KM12 = test system: KM12
DU-145 = test system: DU-145
SK-MEL-5 = test system: SK-MEL-5
OVCAR-5 = test system: OVCAR-5
A549 = test system: A549
LOX IMVI = test system: LOX IMVI
SF-295 = test system: SF-295
SNB-19 = test system: SNB-19
MDA-MB-435 = test system: MDA-MB-435
HCT-15 = test system: HCT-15
OVCAR-3 = test system: OVCAR-3
BT-549 = test system: BT-549
EKVX = test system: EKVX
Hs-578T = test system: Hs-578T
SW-620 = test system: SW-620
TK-10 = test system: TK-10
NCI/ADR-RES = test system: NCI/ADR-RES
MDA-MB-231 = test system: MDA-MB-231
MDA-N = test system: MDA-N
PC-3 = test system: PC-3
UACC-257 = test system: UACC-257
RXF 393 = test system: RXF 393
U-251 = test system: U-251
T47D = test system: T47D

Measured: GI50

Cc1ncc(CBr)c(CBr)c1O
inactive: COLO 205 > 100 µM | SK-MEL-2 > 100 µM | SNB-75 > 100 µM | RPMI-8226 > 100 µM | M19-MEL > 100 µM | SR > 100 µM | SF-539 > 100 µM | HOP-92 > 100 µM | NCI-H23 > 100 µM | SNB-78 > 100 µM | DMS-273 > 100 µM | HOP-62 > 100 µM | LXFL 529 > 100 µM | Malme-3M > 100 µM | SK-MEL-28 > 100 µM | MOLT-4 > 100 µM | SK-OV-3 > 100 µM | DLD-1 > 100 µM | HCC 2998 > 100 µM | DMS-114 > 100 µM | CAKI-1 > 100 µM | NCI-H226 > 100 µM | CCRF-CEM 44.7 µM | SF-268 > 100 µM | HCT-116 > 100 µM | XF498 > 100 µM | 786-0 > 100 µM | ACHN > 100 µM | UACC-62 > 100 µM | HL-60 60.8 µM | K562 > 100 µM | SN12C > 100 µM | UO-31 89.1 µM | M14 > 100 µM | NCI-H522 55.3 µM | A498 > 100 µM | OVCAR-4 > 100 µM | IGROV-1 > 100 µM

NC(=O)c1cn(C2OC(CO)C(O)C2O)c2ncnc(N)c12 (configuration not stated)
active: SNB-75 0.0422 µM | DMS-273 0.0381 µM | OVCAR-8 0.139 µM | MCF7 0.0902 µM | IGROV-1 0.0885 µM

CCN(C(=O)N[C@@H](C)C(=O)N[C@@H](Cc1ccccc1)C(=O)OC)c1ccccc1
70.8 µM: HCT-15
inactive: COLO 205 31.5 µM | SK-MEL-2 28.6 µM | SNB-75 54 µM | RPMI-8226 38.5 µM | SR 26 µM | HT-29 > 100 µM | SF-539 34.5 µM | HOP-92 19.4 µM | NCI-H23 > 100 µM | NCI-H460 17.5 µM | HOP-62 > 100 µM | KM12 > 100 µM | DU-145 46 µM | Malme-3M 34.4 µM | SK-MEL-5 95.9 µM | OVCAR-5 > 100 µM | SK-MEL-28 33.2 µM | A549 > 100 µM | MOLT-4 > 100 µM | SK-OV-3 > 100 µM | OVCAR-8 51.3 µM | LOX IMVI 31.2 µM | HCC 2998 81.5 µM | SF-295 79.6 µM | SNB-19 > 100 µM | MDA-MB-435 > 100 µM | MCF7 > 100 µM | OVCAR-3 54.2 µM | CAKI-1 > 100 µM | BT-549 > 100 µM | NCI-H226 > 100 µM | CCRF-CEM > 100 µM | EKVX > 100 µM | Hs-578T 70.6 µM | SF-268 > 100 µM | HCT-116 > 100 µM | 786-0 39 µM | ACHN > 100 µM | UACC-62 31.6 µM | HL-60 28.4 µM | K562 32 µM | SW-620 > 100 µM | SN12C 23 µM | TK-10 > 100 µM | NCI/ADR-RES > 100 µM | UO-31 31.7 µM | MDA-MB-231 > 100 µM | M14 34.4 µM | NCI-H522 71.6 µM | A498 > 100 µM | OVCAR-4 68.4 µM | MDA-N > 100 µM | PC-3 > 100 µM | UACC-257 49.1 µM | RXF 393 > 100 µM | U-251 > 100 µM | T47D 56.8 µM | IGROV-1 44.7 µM
